Our source for the IC50 and Activity values is ChEMBL document CHEMBL2434929, “Thermoresponsive dendrimers based on oligoethylene glycols: design, synthesis and cytotoxic activity against MCF-7 breast cancer cells” (Eur J Med Chem, 2013).

Values after ≈ are worked out from the molar mass of the structure shown.

Assay [1] relates to MCF7. The experiment in a line: Cytotoxicity against human MCF7 cells after 72 hrs by SRB-U assay. It counts as functional, cell-based. Conditions: MCF7, 72 h.
Assay [2] deals with MCF7. The experiment in a line: Cytotoxicity against human MCF7 cells assessed as viable cells at 0.1 to 1000 ug/ml after 72 hrs by SRB-U assay. Format: functional. On the technique in general: The SRB assay estimates cell density from bound dye.

Broadly, the IC50 is the concentration that gives 50% inhibition. Lower therefore signals greater potency. Molecule `CCOCCOCCOCCOc1cc(COCCOCCOCCOc2c(Br)c(Br)c(OCCOCCOCCOCc3cc(OCCOCCOCCOCC)c(OCCOCCOCCOCC)c(OCCOCCOCCOCC)c3)c(Br)c2Br)cc(OCCOCCOCCOCC)c1OCCOCCOCCOCC` showed an IC50 with MCF7 [1] of 25.4 µg/mL (≈ 13.2 µM). In addition, the Activity in the assay with MCF7 [2] came to 5.1%.
In the assay with MCF7 [1], `CCOCCOCCOCCOc1cc(COc2c(Br)c(Br)c(OCc3cc(OCCOCCOCCOCC)c(OCCOCCOCCOCC)c(OCCOCCOCCOCC)c3)c(Br)c2Br)cc(OCCOCCOCCOCC)c1OCCOCCOCCOCC` showed an IC50 of 1.07 µg/mL (≈ 0.643 µM). The Activity in the assay on MCF7 [2] is given as 1.97%.
In the same order, the values of `CCOCCOCCOCCOc1c(Br)c(Br)c(OCCOCCOCCOCC)c(Br)c1Br` are 13.8 µg/mL (≈ 18.5 µM) and 11.22%.
